The values that follow come from US20040186052A1, “Cytomodulating peptides and methods for treating neurological disorders” (priority 2002, published 2004).

The subject of data set [1] is ChAT neurons of the nucleus basalis. To be noted: following insult with ibotenic acid; cited from earlier work.
Data set [2] relates to hair cell and cochlear neuron. To be noted: associated with trauma; cited from earlier work.
In data set [3] the test system is dopaminergic neurons in the substantia nigra. Conditions: MPTP model; cited from earlier work.
In the next data set the test system is MS. Conditions: in vivo; cited from earlier work.
For data set [4], the system named is neuronal subtypes deprived of trophic support. To be noted: cited from earlier work.
The test system of the next data set is primary neurons. To be noted: cited from earlier work.
In another data set the test system is retinal ganglion cells. To be noted: following axotomy of the optic nerve; cited from earlier work.
The conditions of data set [5]: in vivo; cited from earlier work.
A short description of the next data set: Body weight in EAE rats. It is filed as in vivo, Lewis rats. To be noted: 50, 15, or 5 mg by icv injection ten days after immunization; % body weight vs starting point.
For a further data set, the system named is NGF-dependent neurons. Kind of data set: Apoptosis of NGF-dependent neurons after NGF deprivation (TUNEL). In kind it is cell-based. To be noted: media lacking NGF and containing anti-NGF antibody. The procedure:
NGF-dependent neurons are maintained in vitro in media containing NGF. The cells are washed and the media containing NGF is replaced with media lacking NGF and containing anti-NGF antibody. One sample is incubated in the presence of RDP-58, the other in the absence of RDP-58. Apoptosis is measured in the two samples, for example, by TUNEL labeling. RDP-58 inhibits neuronal apoptosis in NGF-dependent neurons induced by NGF deprivation.

For another data set, the system named is TNFα mRNA. Put plainly: Cytokine mRNA in brain of EAE rats by real-time RT-PCR. It is filed as in vivo, Lewis rats. Conditions: brain RNA thirteen days after immunization, RDP58- vs Mannitol-treated, n=9, P<0.05. The procedure:
Animals were sacrificed for molecular analysis at post onset day 5. Brains and spinal cords were removed and frozen in liquid nitrogen, then stored at −80° C. until ready for use. The tissues were subsequently homogenized in 700 μl of a guanidinium isothiocyanate solution containing 49 μl β-mercaptoethanol using an Ultraturrax tissue homogenizer (Jahnke and Kunkel, Staufen i. Breisgau, Germany). Total RNA was extracted by using the Absolutely RNA™ RT-PCR Miniprep Kit (Stratagene, La Jolla, USA) and its quality and quantity was determined with the Agilent 2100 Bioanalyzer System (Agilent Technologies, Palo Alto, USA). […]
To measure cytokine mRNA levels, the expression of each gene transcript was analyzed by real-time PCR using the ABI PRISM 7700 Sequence Detection System (TaqMan™, Perkin-Elmer Biosystems, Weiterstadt, Germany). […]
The PCR reaction was performed in a final volume of 25 μl containing 1 μl cDNA, 12.5 μl Master Mix (TaqMan™ Universal PCR Master Mix, Perkin Elmer, Applied Biosystems, Weiterstadt, Germany), 1 μl fluorogenic hybridization probe, […], and 5.5 μl distilled water. […] The mean Ct values for beta-actin and the cytokines were calculated from duplicate reactions. […]
(Quantitative PCR measures a nucleic acid by following its amplification.)

Data set [6] has as its system experimental autoimmune encephalomyelitis (EAE). Put plainly: Acute EAE in Lewis rats, daily clinical scoring. Conditions: intracerebroventricular administration (Table I, FIG. 7). In kind it is in vivo.
The conditions of data set [7]: rheumatoid arthritis patients; cited from earlier work.
Data set [8] deals with relapsing-remitting form of MS. To be noted: patients with relapsing-remitting MS; cited from earlier work.
The next data set deals with Parkinson's disease. To be noted: direct infusion into the putamen; cited from earlier work.

Turning to `CCSCc1ccc2c(c1)c1c3c(c4c5cc(CSCC)ccc5n5c4c1n2[C@H]1C[C@](O)(C(=O)OC)[C@]5(C)O1)CNC3=O` [CEP-1347], in data set [1], the functional deficits entry is “reduces” and the “survival of ChAT neurons of the nucleus basalis” value is “promotes”. Also, in [2], the functional deficits result was “reduce”; the “hair cell and cochlear neuron death” value is reported as “prevent”. Besides, the “survival of dopaminergic neurons in the substantia nigra” value in data set [3] was “promotes”.

Consider `Cc1ccc(=O)n(-c2ccccc2)c1` [Pirfenidone], for which, in the data set with MS, the “progression of MS” value was “slow” and the “symptoms of MS” value is “reduce”.

With `Oc1ccc(-c2nc(-c3ccncc3)c(-c3ccc(F)cc3)[nH]2)cc1` [SB202190], the “survival of neuronal subtypes” value in data set [4] is “promote survival”.

Regarding `C[S+]([O-])c1ccc(-c2nc(-c3ccncc3)c(-c3ccc(F)cc3)[nH]2)cc1` (stereo not shown) [SB203580], in the data set with primary neurons, the NO toxicity result is “inhibits”. The “retinal ganglion cell death” value in the data set with retinal ganglion cells is on record as “reduced”. In [4], the “survival of neuronal subtypes” value is on record as “promote survival”.

Regarding `CN(C)c1ccc(O)c2c1C[C@H]1C[C@H]3[C@H](N(C)C)C(O)=C(C(N)=O)C(=O)[C@@]3(O)C(O)=C1C2=O` [minocycline], the “penetration of the blood-brain-barrier” value in [5] is “limited”.

Regarding “Arg-nL-nL-nL-Arg-nL-nL-nL-Gly-Tyr [RDP58]”, in “Body weight in EAE rats”, the “change in body weight associated with EAE induction” value is listed as “reduces”. The “neuronal apoptosis induced by NGF deprivation” value with NGF-dependent neurons is reported as “inhibits”. For the same molecule, the “TNFα mRNA level in brain” value in the data set on TNFα mRNA is listed as “significantly reduced”. Further, in [6], the disease index entry is recorded as “reducing”, the incidence result is “reducing”, the mean clinical scores result was “reducing” and the severity result is “reducing”.

For “Infliximab: anti-TNF monoclonal antibody”, the demyelinating disease symptoms result in [7] is recorded as “correlated with incidences of demyelinating disease symptoms in some patients”.

For the molecule glatiramer acetate, in data set [8], the disease episodes result is “reductions”.

B1: GDNF: glial cell line-derived neurotrophic factor (protein, UniProt P39905 78-211, looked up)
Glial cell line-derived …: SPDKQMAVLPRRERNRQAAAANPENSRGKGRRGQRGKNRGCVLTAIHLNVTDLGLGYETKEELIFRYCSGSCDAAETTYDKILKNLSRNRRLVSDKVGQACCRPIAFDDDLSFLDDNLVYHILRKHSAKRCGCI
In the case of B1, the “patients' performance” value with Parkinson's disease is “improve”.
